# Reference: publication PMC12637021, “Talin–tensin3 interactions regulate fibrillar adhesion formation and tensin3 phase separation” (The Journal of Cell Biology, 2025)
# “And” between values parts separate entries of the source, which are not always exact repeats. Equal values may be shown once. Where a SMILES comes first, the peptide text is derived from it.
# Key:
# [1] = biological target: T1, talin R7R8 region (residues 1,359–1,659) (Mus musculus, UniProt P26039); assay: 1H-15N HSQC NMR titration of talin R7R8; type: binding; conditions: intermediate exchange
# T1 construct: R7R8 region (residues 1,359–1,659); hexahistidine-tag followed by TEV protease cleavage site (N); made in house; host or cells: E. coli BL21
# T1 sequence (P26039 1359-1659 limits assumed): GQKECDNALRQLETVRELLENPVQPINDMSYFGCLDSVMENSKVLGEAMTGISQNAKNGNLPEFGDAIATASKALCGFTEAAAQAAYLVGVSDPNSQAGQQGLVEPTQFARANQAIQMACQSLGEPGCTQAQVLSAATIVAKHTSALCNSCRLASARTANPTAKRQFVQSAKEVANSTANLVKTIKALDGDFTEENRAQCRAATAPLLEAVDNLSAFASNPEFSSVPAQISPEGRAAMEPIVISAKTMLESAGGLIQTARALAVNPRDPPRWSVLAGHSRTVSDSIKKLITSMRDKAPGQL
# Description: Recombinant mouse talin1 R3 and R7R8 domains were expressed using the pET-151/D-TOPO vector. The recombinant mouse talin R4 domain was expressed using the pET-28a(+)vectors. Both vectors include an N-terminal hexahistidine-tag followed by a tobacco etch virus protease cleavage site. Proteins were overexpressed in BL21 cells and purified via nickel-affinity chromatography with a single-step elution at 250 mM imidazole concentration. For NMR studies, uniformly ^15N-labeled proteins were produced by growing cells in 2xM9 minimal medium supplemented with 1 g/Liter ^15N-ammonium chloride (^15NH4Cl) as the sole nitrogen source. […] Final protein concentrations were determined by measuring absorbance at 280 nm using a NanoDrop spectrophotometer (Thermo Fisher Scientific), based on calculated extinction coefficients.
# NMR spectra were acquired on Bruker Neo 700 MHz (for talin R3) or 800 MHz (for talin R4 and R7R8) spectrometers equipped with TCI cryoprobes. […] NMR data were processed using TopSpin (Bruker) and analyzed with Collaborative Computational Project for NMR software AnalysisAssign (version 3.2). HSQC spectra were measured using a standard Bruker pulse sequence. […] Residue-specific chemical shift differences were calculated using HSQC spectra in the presence of 400 µM tensin3 TBS peptide.
# [2] = biological target: T2, talin R4 domain (residues 913–1,044) (Mus musculus, UniProt P26039); assay: 1H-15N HSQC NMR titration of talin R4; type: binding
# T2 construct: R4 domain (residues 913–1,044); hexahistidine-tag followed by TEV protease cleavage site (N); made in house; host or cells: E. coli BL21
# T2 sequence (P26039 913-1044 limits assumed): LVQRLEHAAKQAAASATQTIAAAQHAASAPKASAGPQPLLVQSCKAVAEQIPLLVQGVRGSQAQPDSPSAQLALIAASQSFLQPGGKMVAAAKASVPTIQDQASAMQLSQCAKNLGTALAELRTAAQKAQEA
# Description: (§1) Recombinant mouse talin1 R3 and R7R8 domains were expressed using the pET-151/D-TOPO vector. The recombinant mouse talin R4 domain was expressed using the pET-28a(+)vectors. Both vectors include an N-terminal hexahistidine-tag followed by a tobacco etch virus protease cleavage site. Proteins were overexpressed in BL21 cells and purified via nickel-affinity chromatography with a single-step elution at 250 mM imidazole concentration. For NMR studies, uniformly ^15N-labeled proteins were produced by growing cells in 2xM9 minimal medium supplemented with 1 g/Liter ^15N-ammonium chloride (^15NH4Cl) as the sole nitrogen source. Following purification, proteins were concentrated and buffer-exchanged using PD-10 desalting columns (Cytiva). Final protein concentrations were determined by measuring absorbance at 280 nm using a NanoDrop spectrophotometer (Thermo Fisher Scientific), based on calculated extinction coefficients.
# (§2) NMR spectra were acquired on Bruker Neo 700 MHz (for talin R3) or 800 MHz (for talin R4 and R7R8) spectrometers equipped with TCI cryoprobes. All experiments were performed at 298 K using 200 µM of uniformly ^15N-labeled talin R3, R4, or R7R8 in 20 mM sodium phosphate buffer (pH 6.4) containing 50 mM NaCl, 0.1 mM tris(2-carboxyethyl)phosphine (TCEP), and 5% (vol/vol) D2O. For titration experiments, synthetic tensin3 TBS peptide (aa 692–718) was added at final concentrations of 50, 100, 200, 400, and 800 µM. NMR data were processed using TopSpin (Bruker) and analyzed with Collaborative Computational Project for NMR software AnalysisAssign (version 3.2). HSQC spectra were measured using a standard Bruker pulse sequence. HSQC signals of the free proteins were assigned using the available backbone chemical shift data from the Biological Magnetic Resonance Data Bank (BMRB entries; R3: 17332; R4: 18313). The signals of the bound state were assigned by following the chemical shift changes with the increased concentrations of the peptide. Residue-specific chemical shift differences were calculated using HSQC spectra in the presence of 400 µM tensin3 TBS peptide.
# [3] = biological target: T3, talin R3 domain (residues 787–911) (Mus musculus, UniProt P26039); assay: ITC, tensin3 TBS peptide binding to talin R3; conditions: ITC 25°C, pH 6.5; mean ± SD from triplicate measurements
# T3 construct: recombinant talin R3 domain (residues 787–911); hexahistidine-tag followed by TEV protease cleavage site (N); made in house; host or cells: E. coli BL21
# T3 sequence (P26039 787-911): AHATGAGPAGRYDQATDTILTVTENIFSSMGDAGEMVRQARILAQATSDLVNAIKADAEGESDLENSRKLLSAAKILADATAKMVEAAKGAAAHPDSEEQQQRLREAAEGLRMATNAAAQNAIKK
# Excerpt: (§3) Figure 3. Structural characterization of the multidomain talin–tensin3 interaction. (A) Representative images of NIH3T3 cells co-expressing GFP-R11DD-cBAK WT or carrying K2024E, K2031E, or both (K2024E+K2031E) with mCh-IDR. (B) Mitochondrial pulldown experiment using the same constructs as in A. (C) AlphaFold3 model of the talin R8–tensin3 TBS complex. TBS (orange) was predicted to engage the α2-α3 face of the R8 bundle (cyan). K1500 and R1510 (brown) are highlighted on the […]. (D) NIH3T3 cells co-expressing GFP-R7R8-cBAK WT or carrying K1500E or R1510E with mCh-IDR. (E) Mitochondrial pulldown experiment using constructs as in D. (F) Cells co-expressing mCh-TNS3-WT-cBAK and GFP-TLN1 constructs (R8m, K1500E; R11m, K2024E+K2031E). mCh-TNS3-L702E-cBAK was used as a negative control. (G and H) Overlay ^1H-^15N HSQC spectra of ^15N-labeled talin R3 (G) and talin R4 (H), at a concentration of 200 µM, in the absence (blue) and presence (red) of tensin3 TBS peptide at a molar ratio of 1:2. Magnified views in the right panels show the cross-peaks corresponding to the residues K869 and V871 of talin R3 (G) and the residues S927 and G969 of talin R4 (H), illustrating the progressive chemical shift changes at peptide molar ratios of 0 (blue), 0.25 (orange), 0.5 (green), 1.0 (coral), and 2.0 (red). The HSQC spectra of R3 and R4 were recorded at 700 and 800 MHz, respectively. (I and J) Mapping of the residue-specific CSD (related to Fig. S2, H and I) on the AlphaFold3 models of talin R3 (I) and R4 (J) colored in cyan, respectively, in complex with tensin3 TBS (orange). […]
# (§4) Recombinant mouse talin1 R3 and R7R8 domains were expressed using the pET-151/D-TOPO vector. […] Final protein concentrations were determined by measuring absorbance at 280 nm using a NanoDrop spectrophotometer (Thermo Fisher Scientific), based on calculated extinction coefficients.
# (§5) ITC experiments were performed using a MicroCal PEAQ-ITC automated instrument (Malvern Panalytical) at 25°C. […] Data were analyzed using the one-site binding model implemented in MicroCal PEAQ-ITC analysis software (Malvern Panalytical).
# [4] = biological target: T2, talin R4 domain (residues 913–1,044); assay: ITC, tensin3 TBS peptide binding to talin R4; conditions: ITC 25°C, pH 6.5; mean ± SD from triplicate measurements
# Excerpt: as §3, §4, §5
# talin R11 = conditions: previous observation; ref Atherton et al., 2022; read-out: Kd, talin R11 with tensin3 TBS; cited from earlier work
# [5] = biological target: T3, talin R3 domain (residues 787–911); assay: 1H-15N HSQC NMR titration of talin R3; type: binding
# Description: as §1, §2
# [6] = biological target: T1, talin R7R8 region (residues 1,359–1,659); assay: ITC, tensin3 TBS peptide binding to talin R7R8; conditions: ITC 25°C, pH 6.5; mean ± SD from triplicate measurements
# Excerpt: as §3, §4, §5
# [7] = 1:2 molar ratio (400 µM TBS peptide), threshold 5× SD
smiles,measurement,setting,value
CC[C@H](C)[C@H](NC(=O)[C@H](CO)NC(=O)[C@H](CCC(N)=O)NC(=O)[C@H](CC(=O)O)NC(=O)[C@@H](NC(=O)[C@H](CC(=O)O)NC(=O)[C@H](CC(C)C)NC(=O)[C@@H](N)[C@@H](C)O)[C@@H](C)CC)C(=O)N[C@@H](CCC(=O)O)C(=O)N[C@@H](CCC(N)=O)C(=O)N[C@@H](CC(C)C)C(=O)N[C@@H](CC(N)=O)C(=O)N[C@@H](CCCNC(=N)N)C(=O)N[C@@H](CC(C)C)C(=O)N[C@H](C(=O)N[C@@H](CC(C)C)C(=O)N[C@@H](CCC(=O)O)C(=O)N[C@@H](CC(C)C)C(=O)N[C@@H](CC(=O)O)C(=O)N1CCC[C@H]1C(=O)N[C@H](C(=O)N[C@@H](Cc1ccccc1)C(=O)N[C@@H](CCC(=O)O)C(=O)N1CCC[C@H]1C(=O)N[C@H](C(=O)N1CCC[C@H]1C(=O)N[C@H](C(=O)O)[C@@H](C)O)[C@@H](C)CC)[C@@H](C)O)[C@@H](C)CC [tensin3 TBS] (H-TLDIDQSIEQLNRLILELDPTFEPIPT-OH; N-terminus and C-terminus assumed),"Kd range suggested by exchange rate in NMR, R7R8",[1],micromolar (µM) range
same,"HSQC spectral changes on addition of TBS, R4","[2]; 200 µM 15N-talin R4, 298 K, 20 mM sodium phosphate pH 6.4, 50 mM NaCl, 0.1 mM TCEP, 5% D2O, 800 MHz, molar ratio up to 1:2",substantial changes
same,"location of significant chemical shift perturbations, R4",[2]; [7],α1 and α2 helices of R4
same,"Kd range suggested by exchange rate in NMR, R4",[2]; intermediate exchange,micromolar (µM) range
same,"Gibbs free energy (ΔG), R3-TBS",[3],-6.41 ± 0.0478 kcal/mol
same,"enthalpy change (ΔH), R3-TBS",[3],1.68 ± 0.148 kcal/mol and 1.68 ± 0.14 kcal/mol
same,"entropy contribution (−TΔS), R3-TBS",[3],-8.08 ± 0.0956 kcal/mol
same,"Gibbs free energy (ΔG), R4-TBS",[4],-6.29 ± 0.086 kcal/mol
same,"enthalpy change (ΔH), R4-TBS",[4],2.94 ± 0.586 kcal/mol and 2.94 ± 0.574 kcal/mol
same,"entropy contribution (−TΔS), R4-TBS",[4],-9.32 ± 0.626 kcal/mol
same,Kd,talin R11,17 µM
same,"HSQC spectral changes on addition of TBS, R3","[5]; 200 µM 15N-talin R3, 298 K, 20 mM sodium phosphate pH 6.4, 50 mM NaCl, 0.1 mM TCEP, 5% D2O, 700 MHz, molar ratio up to 1:2",substantial changes
same,"location of significant chemical shift perturbations, R3",[5]; [7],α2 and α3 helices of R3
same,"Kd range suggested by exchange rate in NMR, R3",[5]; intermediate exchange,micromolar (µM) range
same,"Gibbs free energy (ΔG), R7R8-TBS",[6],-6.549 ± 0.0406 kcal/mol
same,"enthalpy change (ΔH), R7R8-TBS",[6],10.21 ± 0.492 kcal/mol
same,"entropy contribution (−TΔS), R7R8-TBS",[6],-16.75 ± 0.464 kcal/mol
